One assay addresses KRAS G12D (Homo sapiens (Human), UniProt P01116+P62937, G12D). As to the kind of experiment: Ras-Raf (BRAF RBD) disruption / FRET / MOA assay, KRAS G12D. As to conditions: Ras-Raf disruption/FRET/MOA assay; class symbols; read-out: KRAS G12D FRET data IC50. It counts as biochemical. A digest of the protocol: (§1)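 Ternary complex formation (Ras–compound–cyclophilin A) displacing BRAF RBD, monitored by TR-FRET. Three hours at 25° C with compound (top 30 μM final), then 1.5 h with the labelled antibodies. Lower ratio than DMSO indicates disruption; IC50 reported.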

In a further assay the target is KRAS G12S (Homo sapiens (Human), UniProt P01116+P62937, G12S). Briefly: Ras-Raf (BRAF RBD) disruption / FRET / MOA assay, KRAS G12S. The conditions noted are these: Ras-Raf disruption/FRET/MOA assay; class symbols; read-out: KRAS G12S FRET data IC50. It counts as biochemical. A digest of the protocol:
as §1

This note sets out measurements from US11566007B2, “Ras inhibitors” (Revolution Medicines, Inc., priority 2019, dated 2023).

KRAS G12D, sequence (P01116-2 other isoform, or with tags, fused parts or gaps G12D): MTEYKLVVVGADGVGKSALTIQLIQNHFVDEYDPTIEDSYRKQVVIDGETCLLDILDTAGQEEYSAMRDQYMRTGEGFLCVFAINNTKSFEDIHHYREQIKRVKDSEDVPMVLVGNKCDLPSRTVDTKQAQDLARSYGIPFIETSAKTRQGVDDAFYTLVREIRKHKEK
KRAS G12D, sequence (P62937 whole entry): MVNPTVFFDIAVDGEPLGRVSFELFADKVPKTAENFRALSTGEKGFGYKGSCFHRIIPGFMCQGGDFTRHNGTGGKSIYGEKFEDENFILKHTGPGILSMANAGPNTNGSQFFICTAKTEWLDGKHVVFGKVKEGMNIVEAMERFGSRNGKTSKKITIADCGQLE
KRAS G12S, sequence (P01116-2 other isoform, or with tags, fused parts or gaps G12S): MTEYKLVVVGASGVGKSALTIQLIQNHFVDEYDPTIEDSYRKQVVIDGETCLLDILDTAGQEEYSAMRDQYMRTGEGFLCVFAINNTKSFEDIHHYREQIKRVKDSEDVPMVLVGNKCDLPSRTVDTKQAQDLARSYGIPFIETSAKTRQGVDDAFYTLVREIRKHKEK
KRAS G12S, sequence (P62937 whole entry): as the sequence (P62937 whole entry) above

One may read the IC50 as the concentration at which inhibition is half-maximal. In the case of `CCn1c(-c2cccnc2[C@H](C)OC)c2c3cc(ccc31)-c1cccc(c1)C[C@H](NC(=O)[C@@H](COC1CN(C(=O)C#CC(C)(C)N(C)C3CC3)C1)C(C)C)C(=O)N1CCC[C@H](N1)C(=O)OCC(C)(C)C2` (atropisomer, axis not shown) [Example A613], the 50% inhibitory concentration (IC50) on KRAS G12D and at KRAS G12S was greater than 10000 nM in each case.
On to `C=CC(=O)N(C)CCN1CCN(C(=O)N(C)[C@H](C(=O)N[C@H]2Cc3cccc(c3)-c3ccc4c(c3)c(c(-c3cccnc3[C@H](C)OC)n4CC)CC(C)(C)COC(=O)[C@@H]3CCCN(N3)C2=O)C(C)C)C[C@H]1C` (atropisomer, axis not shown) [Example A553], for which the IC50 at KRAS G12D and at KRAS G12S was 1000 to 10000 nM each time.
Consider `C=CC(=O)N1CC[C@H](C(=O)N(C)[C@H](C(=O)N[C@H]2Cc3csc(n3)-c3ccc4c(c3)c(c(-c3cccnc3[C@H](C)OC)n4CC)CC(C)(C)COC(=O)[C@@H]3CCCN(N3)C2=O)C(C)C)C1` (atropisomer, axis not shown) [Example A330], for which the IC50 on KRAS G12D and on KRAS G12S was 1000 to 10000 nM in each case.
As to `CCn1c(-c2cccnc2[C@H](C)OC)c2c3cc(ccc31)-c1csc(n1)C[C@H](NC(=O)[C@H](C(C)C)N(C)C(=O)N1CCC13CN(C(=O)/C=C/CN1CCOCC1)C3)C(=O)N1CCC[C@H](N1)C(=O)OCC(C)(C)C2` (atropisomer, axis not shown) [Example A611], the figures for the concentration for half-maximal inhibition (IC50) on KRAS G12D and on KRAS G12S were 1000 to 10000 nM and 100 to 1000 nM, respectively.
The matching figures for `C=CC(=O)N1CC[C@H](C(=O)N(C)[C@H](C(=O)N[C@H]2CN3CCC=C(C3)c3ccc4c(c3)c(c(-c3cccnc3[C@H](C)OC)n4CC)CC(C)(C)COC(=O)[C@@H]3CCCN(N3)C2=O)C(C)C)C1` (atropisomer, axis not shown) [Example A716, (3S)-1-acryloyl-N-((2S)-1-(((6^3S,4S)-1^1-ethyl-1^2-(2-((S)-1-methoxyethyl)pyridin-3-yl)-10,10-dimethyl-5,7-dioxo-2^1,2^2,2^3,2^6,6^1,6^2,6^3,6^4,6^5,6^6-decahydro-1^1H-8-oxa-1(5,3)-indola-6(1,3)-pyridazina-2(5,1)-pyridinacycloundecaphane-4-yl)amino)-3-methyl-1-oxobutan-2-yl)-N-methylpyrrolidine-3-carboxamide]: greater than 10000 nM and 1000 to 10000 nM.
The matching figures for `C=CC(=O)N1CC[C@H](C(=O)N(C)[C@H](C(=O)N[C@H]2Cc3cc(O)cc(c3)-c3ccc4c(c3)c(c(-c3c(C)cccc3C)n4CC)CC(C)(C)COC(=O)[C@@H]3CCCN(N3)C2=O)C(C)C)C1` [Example A226]: greater than 10000 nM and 1000 to 10000 nM.
In the same order, the values of `C=CC(=O)N1CCO[C@H]2CN(C(=O)N(C)[C@H](C(=O)N[C@H]3Cc4nc(n(C)n4)-c4ccc5c(c4)c(c(-c4cccnc4[C@H](C)OC)n5CC(F)(F)F)CC(C)(C)COC(=O)[C@@H]4CCCN(N4)C3=O)C(C)C)C[C@H]21` (atropisomer, axis not shown) [Example A575] are 1000 to 10000 nM and 100 to 1000 nM.
In the case of `CCn1c(-c2cccnc2[C@H](C)OC)c2c3cc(ccc31)-c1csc(n1)C[C@H](NC(=O)[C@H](C(C)C)N(C)C(=O)N(C)C1CN(C(=O)/C=C/[C@@H]3CCCN3C)C1)C(=O)N1CCC[C@H](N1)C(=O)OCC(C)(C)C2` (atropisomer, axis not shown) [Example A730], the IC50 on KRAS G12D fell in the range of 1000 to 10000 nM; at KRAS G12S, 100 to 1000 nM.
Regarding `CC#CC(=O)N1CC(N(C)C(=O)N(C)[C@H](C(=O)N[C@H]2Cc3nc(cs3)-c3ccc4c(c3)c(c(-c3cccnc3[C@H](C)OC)n4CC)CC(C)(C)COC(=O)[C@@H]3CCCN(N3)C2=O)C(C)C)C1` (atropisomer, axis not shown) [Example A731], the concentration for half-maximal inhibition (IC50) on KRAS G12D fell in the range of 1000 to 10000 nM; at KRAS G12S, 100 to 1000 nM.
In the same order, the values of `C=CS(=O)(=O)N1CCC(C(=O)N(C)[C@H](C(=O)N[C@H]2Cc3nc(cs3)-c3ccc4c(c3)c(c(-c3cncnc3)n4CC)CC(C)(C)COC(=O)[C@@H]3CCCN(N3)C2=O)C(C)C)C1` (single isomer, unassigned) [Example A170] are greater than 10000 nM and greater than 10000 nM.
The matching figures for `CCn1c(-c2cccnc2[C@H](C)OC)c2c3cc(ccc31)N1CCC[C@@H](C[C@H](NC(=O)[C@H](C(C)C)N(C)C(=O)[C@H]3CCN(C(=O)C#CC(C)(C)N4CCC4)C3)C(=O)N3CCC[C@H](N3)C(=O)OCC(C)(C)C2)C1` (atropisomer, axis not shown) [Example A617]: greater than 10000 nM and greater than 10000 nM.
Consider `C=CC(=O)N1CC[C@H](C(=O)N(C)[C@H](C(=O)N[C@H]2Cc3nc(ns3)-c3ccc4c(c3)c(c(-c3cccnc3[C@H](C)OC)n4CC)CC(C)(C)COC(=O)[C@@H]3CCCN(N3)C2=O)C(C)C)C1` (atropisomer, axis not shown) [Example A202], for which the IC50 is greater than 10000 nM on KRAS G12D and 1000 to 10000 nM on KRAS G12S.
The matching figures for `C=CC(=O)N1CC[C@H](C(=O)N(C)[C@H](C(=O)N[C@H]2Cc3cc(O)cc(c3)-c3ccc4c(c3)c(c(-c3cccnc3[C@@H]3CCCO3)n4CC)CC(C)(C)COC(=O)[C@@H]3CCCN(N3)C2=O)C(C)C)C1` (atropisomer, axis not shown) [Example A281]: 1000 to 10000 nM and 100 to 1000 nM.
Turning to `C=CC(=O)N1CC[C@H](C(=O)N(C)[C@H](C(=O)N[C@H]2Cc3cccc(c3)-c3ccc4c(c3)c(c(-c3cccnc3[C@H](C)OC)n4CC)CC(C)(C)COC(=O)[C@@H]3CCCN(N3)C2=O)C(C)C)[C@H]1C` (atropisomer, axis not shown) [Example A373], the IC50 at KRAS G12D and at KRAS G12S was 1000 to 10000 nM throughout.
For the compound `CCn1c(-c2cccnc2[C@H](C)OC)c2c3cc(ccc31)-c1csc(n1)C[C@H](NC(=O)[C@H](C(C)C)N(C)C(=O)N1CC(N(C)C(=O)/C=C/CN(C)C)C1)C(=O)N1CCC[C@H](N1)C(=O)OCC(C)(C)C2` (atropisomer, axis not shown) [Example A710], the 50% inhibitory concentration (IC50) at KRAS G12D and at KRAS G12S was 100 to 1000 nM in each case.
Turning to `C=C(OC)C(=O)N1CC(N(C)C(=O)N(C)[C@H](C(=O)N[C@H]2Cc3nc(cs3)-c3ccc4c(c3)c(c(-c3cccnc3[C@H](C)OC)n4CC)CC(C)(C)COC(=O)[C@@H]3CCCN(N3)C2=O)C(C)C)C1` (atropisomer, axis not shown) [Example A713], the IC50 is 1000 to 10000 nM on KRAS G12D and 100 to 1000 nM on KRAS G12S.
In the same order, the values of `C=CC(=O)N1CC[C@H](C(=O)N(C)[C@H](C(=O)N[C@H]2Cc3cc(O)cc(c3)-c3ccc4c(c3)c(c(-c3cccnc3[C@@H](OC)C3CC3)n4CC)CC(C)(C)COC(=O)[C@@H]3CCCN(N3)C2=O)C(C)C)C1` (atropisomer, axis not shown) [Example A207] are 1000 to 10000 nM and 100 to 1000 nM.
Consider `C=CS(=O)(=O)N1CCC(C(=O)N(C)[C@H](C(=O)N[C@H]2Cc3cccc(c3)-c3ccc4c(c3)c(c(-c3cncnc3)n4CC)CC(C)(C)COC(=O)[C@@H]3CCCN(N3)C2=O)C(C)C)C1` (single isomer, unassigned) [Example A171], for which the IC50 on KRAS G12D and at KRAS G12S was greater than 10000 nM in each case.
As to `CC#CC(=O)N1CC2(CCN2C(=O)N(C)[C@H](C(=O)N[C@H]2Cc3nc(cs3)-c3ccc4c(c3)c(c(-c3cccnc3[C@H](C)OC)n4CC)CC(C)(C)COC(=O)[C@@H]3CCCN(N3)C2=O)C(C)C)C1` (atropisomer, axis not shown) [Example A655], the IC50 was in the range of 1000 to 10000 nM on KRAS G12D and 100 to 1000 nM on KRAS G12S.
The matching figures for `C=CC(=O)N1CC[C@H](C(=O)N(C)[C@H](C(=O)N[C@H]2Cc3cccc(c3)-c3ccc4c(c3)c(c(-c3cccnc3[C@H](C)OC)n4CC3COC3)CC(C)(C)COC(=O)[C@@H]3CCCN(N3)C2=O)C(C)C)C1` (atropisomer, axis not shown) [Example A481]: greater than 10000 nM and 1000 to 10000 nM.
In the same order, the values of `C=CC(=O)N1CCC[C@H]2CN(C(=O)N(C)[C@H](C(=O)N[C@H]3Cc4nc(cs4)-c4ccc5c(c4)c(c(-c4cccnc4[C@H](C)OC)n5CC)CC(C)(C)COC(=O)[C@@H]4CCCN(N4)C3=O)C(C)C)C[C@H]21` (atropisomer, axis not shown) [Example A618] are 1000 to 10000 nM and 100 to 1000 nM.
With `CCn1c(-c2cccnc2[C@H](C)OC)c2c3cc(ccc31)-c1nc(nn1C)C[C@H](NC(=O)[C@@H](COC1CN(C(=O)C#CC(C)(C)N(C)C)C1)C(C)C)C(=O)N1CCC[C@H](N1)C(=O)OCC(C)(C)C2` (atropisomer, axis not shown) [Example A720, (2R)-2-(((1-(4-(dimethylamino)-4-methylpent-2-ynoyl)azetidin-3-yl)oxy)methyl)-N-((6^3S,4S,Z)-1^1-ethyl-1^2-(2-((S)-1-methoxyethyl)pyridin-3-yl)-2^1,10,10-trimethyl-5,7-dioxo-6^1,6^2,6^3,6^4,6^5,6^6-hexahydro-1^1H,2^1H-8-oxa-1(5,3)-indola-6(1,3)-pyridazina-2(5,3)-triazolacycloundecaphane-4-yl)-3-methylbutanamide], the half-inhibitory concentration (IC50) on KRAS G12D was greater than 10000 nM; on KRAS G12S it was 1000 to 10000 nM.
In the same order, the values of `C=CC(=O)N1CCC[C@]12CCN(C(=O)N(C)[C@H](C(=O)N[C@H]1Cc3nc(cs3)-c3ccc4c(c3)c(c(-c3cccnc3[C@H](C)OC)n4CC)CC(C)(C)COC(=O)[C@@H]3CCCN(N3)C1=O)C(C)C)C2` (atropisomer, axis not shown) [Example A548] are 1000 to 10000 nM and 100 to 1000 nM.
For `C=CC(=O)N1CC[C@H](C(=O)N(C)[C@H](C(=O)N[C@H]2Cc3cc(O)cc(c3)-c3ccc4c(c3)c(c(-c3cccc(=O)n3C(C)C)n4CC)CC(C)(C)COC(=O)[C@@H]3CCCN(N3)C2=O)C(C)C)C1` [Example A151], the 50% inhibitory concentration (IC50) is greater than 10000 nM at KRAS G12D and 1000 to 10000 nM at KRAS G12S.
Consider `C=C(F)C(=O)N1CC(N(C)C(=O)N(C)[C@H](C(=O)N[C@H]2Cc3nc(cs3)-c3ccc4c(c3)c(c(-c3cccnc3[C@H](C)OC)n4CC)CC(C)(C)COC(=O)[C@@H]3CCCN(N3)C2=O)C(C)C)C1` (atropisomer, axis not shown) [Example A732], for which the IC50 fell in the range of 1000 to 10000 nM at KRAS G12D and 100 to 1000 nM at KRAS G12S.
